# From US20080025970A1, “Treatment of atherosclerosis” (priority 2004, published 2008)
# Experiments:
# Type in all cases: cell-based
# [1] = system: adhesion of highly activated U937 cells to HSP60; experiment: Adhesion of highly activated U937 cells to HSP60 coated wells; settings: at the lowest concentration tested; FIG. 9
# [2] = system: adhesion of monocytes to tissue sections of atherosclerotic plaque; experiment: Adhesion of monocytes to tissue sections of atherosclerotic plaque
# [3] = system: adhesion of highly activated U937 cells to oxidised LDL; experiment: Adhesion of highly activated U937 cells (PMA plus vitamin A and vitamin D) to oxidised LDL; settings: raft-disrupting agents; all concentrations tested; FIG. 5
# Description: Plastic wells were coated with oxidised LDL, or fibronectin 10 μg/ml for 16 hrs at 4° C., and washed. Monocytes were isolated in an unactivated state from one unit of buffy coat cells by the method of Tsouknos et al^26, labelled with carboxyfluorescein for 30 mins, and washed. Inhibitors and control Ig UPC10 were added to the plates in 50 μL, and then 50 μL of cells at a final concentration of 3×10^6/ml in the assay. The plates were incubated at 37° C. for 1 hr. Non-adherent cells were removed by a standardised washing procedure, and after addition of cell suspension to 3 wells as the 100% control, the plates were measured in an automatic fluorescent spectrophotometer.
# U937 cells were stimulated with PMA 10 ng/ml, plus vitamin A (1 ug/ml) and vitamin D (10^-7 M) for 16 hours, and then the assay was performed as in Example 3.
# U937 cells were stimulated as in Example 5, and the experiment performed as in Example 3. The results are shown in FIG. 6, with the legend as in the previous figures. CD14, CD18, TLR-4 antibodies were all murine Igs. MOPC21:—control murine IgG1, UPC10:—control murine IgG2a.
Molecule,inhibition of binding of highly activated U937 cells to HSP60 [1],inhibition of adhesion of monocytes to tissue sections of atherosclerotic plaque [2],inhibition of activated U937 cell adhesion to oxidised LDL [3]
"C[S+](C)[O-] [DMSO, Dimethylsulphoxide]",highly inhibitory,inhibits adhesion,–
C[C@@H]1[C@H](O)[C@@H](C)/C=C/C=C/CC/C=C/C=C/C=C/C=C/C(O[C@H]2O[C@H](C)[C@@H](O)[C@H](N)[C@@H]2O)CC2O[C@](O)(CC(O)C(O)CCC(O)CC(O)CC(O)CC(=O)O[C@H]1C)CC(O)C2C(=O)O (stereo partly shown) [nystatin],–,–,near-total inhibition
methyl cyclodextrin,–,–,near-total inhibition
